{"source": "patent US11091490B2", "about": "“3-amino-1,5-dihydro-pyrazolo[3,4-d]pyrimidin-4-ones as cyclin dependent kinase inhibitors” (Oncotyrol Center for Personalized Cancer Medicine GMBH, priority 2016, dated 2021)", "key": {"CDK7": {"biological_target": "T1, CDK7 (Homo sapiens, UniProt P50613)", "T1 construct": "purchased DiscoverX", "T1 sequence (P50613 whole entry)": "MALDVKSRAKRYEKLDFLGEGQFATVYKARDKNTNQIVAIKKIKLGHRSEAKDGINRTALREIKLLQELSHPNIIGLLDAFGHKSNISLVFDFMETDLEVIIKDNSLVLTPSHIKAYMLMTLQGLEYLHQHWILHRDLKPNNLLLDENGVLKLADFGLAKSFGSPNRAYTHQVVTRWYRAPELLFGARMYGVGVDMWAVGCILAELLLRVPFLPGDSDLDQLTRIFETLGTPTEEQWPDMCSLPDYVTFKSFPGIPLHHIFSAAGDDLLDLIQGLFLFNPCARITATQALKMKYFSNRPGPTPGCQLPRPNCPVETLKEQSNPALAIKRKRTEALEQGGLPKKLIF", "test": "Target selectivity profile (DiscoverX KinomeScan) CDK7", "assay_type": "binding", "from_the_text": "(§1) 3. Target Selectivity Profile (DiscoverX KinomeScan)\n(§2) According to an analysis of kinase inhibitory selectivity carried out in accordance with Karaman M W et al., Nat Biotechnol. 2008 January; 26(1):127-32. doi: 10.1038/nbt1358."}, "CDK13": {"biological_target": "T2, CDK13 (Homo sapiens, UniProt Q14004)", "T2 construct": "purchased DiscoverX", "T2 sequence (Q14004 whole entry)": "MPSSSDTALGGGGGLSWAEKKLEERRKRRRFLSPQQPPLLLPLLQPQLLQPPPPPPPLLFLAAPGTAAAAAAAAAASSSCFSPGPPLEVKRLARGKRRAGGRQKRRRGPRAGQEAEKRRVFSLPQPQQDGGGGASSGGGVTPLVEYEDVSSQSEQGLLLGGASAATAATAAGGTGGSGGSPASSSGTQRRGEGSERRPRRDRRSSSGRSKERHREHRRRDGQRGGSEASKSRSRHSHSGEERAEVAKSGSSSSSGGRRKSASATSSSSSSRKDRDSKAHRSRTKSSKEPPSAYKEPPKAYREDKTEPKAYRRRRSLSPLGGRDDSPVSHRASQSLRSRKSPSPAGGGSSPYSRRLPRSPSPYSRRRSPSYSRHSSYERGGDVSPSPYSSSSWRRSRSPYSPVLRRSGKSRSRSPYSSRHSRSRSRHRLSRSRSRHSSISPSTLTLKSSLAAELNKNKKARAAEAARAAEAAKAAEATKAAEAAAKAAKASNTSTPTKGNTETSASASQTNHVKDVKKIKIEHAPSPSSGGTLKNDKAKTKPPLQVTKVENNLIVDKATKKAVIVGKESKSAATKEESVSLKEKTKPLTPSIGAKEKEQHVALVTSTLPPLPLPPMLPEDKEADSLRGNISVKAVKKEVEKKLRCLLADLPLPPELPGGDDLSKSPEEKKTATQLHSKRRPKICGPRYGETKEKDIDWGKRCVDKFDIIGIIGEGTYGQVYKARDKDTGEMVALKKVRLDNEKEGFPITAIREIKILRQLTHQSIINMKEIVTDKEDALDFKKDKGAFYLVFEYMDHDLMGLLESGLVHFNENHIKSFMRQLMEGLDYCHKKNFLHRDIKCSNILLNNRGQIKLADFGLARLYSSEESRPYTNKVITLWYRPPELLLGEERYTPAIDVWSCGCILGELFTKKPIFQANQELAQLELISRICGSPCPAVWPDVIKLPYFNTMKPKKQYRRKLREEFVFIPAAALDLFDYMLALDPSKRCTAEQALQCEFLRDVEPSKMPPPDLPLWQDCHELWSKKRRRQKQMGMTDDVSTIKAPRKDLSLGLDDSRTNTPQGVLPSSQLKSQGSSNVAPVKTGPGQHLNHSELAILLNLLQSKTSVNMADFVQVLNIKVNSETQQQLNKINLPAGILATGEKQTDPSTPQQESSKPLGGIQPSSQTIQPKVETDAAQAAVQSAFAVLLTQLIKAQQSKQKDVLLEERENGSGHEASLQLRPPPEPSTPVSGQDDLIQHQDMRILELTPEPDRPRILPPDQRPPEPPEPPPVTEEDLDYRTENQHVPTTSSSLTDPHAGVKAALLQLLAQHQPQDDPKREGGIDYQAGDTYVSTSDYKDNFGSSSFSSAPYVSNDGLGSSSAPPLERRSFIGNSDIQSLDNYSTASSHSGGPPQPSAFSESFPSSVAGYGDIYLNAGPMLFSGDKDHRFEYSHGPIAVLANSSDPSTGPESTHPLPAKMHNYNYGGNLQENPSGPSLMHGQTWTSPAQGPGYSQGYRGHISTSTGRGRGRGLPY", "test": "Target selectivity profile (DiscoverX KinomeScan) CDK13", "assay_type": "binding", "from_the_text": "as §1, §2"}, "CDK16": {"biological_target": "T3, CDK16 (Homo sapiens, UniProt Q00536)", "T3 construct": "purchased DiscoverX", "T3 sequence (Q00536 whole entry)": "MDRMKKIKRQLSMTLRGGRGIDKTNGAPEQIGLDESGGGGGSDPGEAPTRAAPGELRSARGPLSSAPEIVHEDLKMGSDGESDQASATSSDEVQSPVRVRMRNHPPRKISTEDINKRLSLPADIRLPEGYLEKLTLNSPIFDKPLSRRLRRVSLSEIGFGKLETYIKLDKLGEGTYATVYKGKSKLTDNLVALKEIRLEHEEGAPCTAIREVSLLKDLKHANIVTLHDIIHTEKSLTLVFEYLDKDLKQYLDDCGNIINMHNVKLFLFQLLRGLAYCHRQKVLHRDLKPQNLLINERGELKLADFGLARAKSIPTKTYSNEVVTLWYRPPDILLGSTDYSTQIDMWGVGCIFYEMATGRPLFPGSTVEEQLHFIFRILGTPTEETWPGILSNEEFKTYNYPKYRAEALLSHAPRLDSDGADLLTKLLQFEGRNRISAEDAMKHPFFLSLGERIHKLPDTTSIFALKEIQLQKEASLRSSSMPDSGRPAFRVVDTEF", "test": "Target selectivity profile (DiscoverX KinomeScan) CDK16", "assay_type": "binding", "from_the_text": "as §1, §2"}, "most CYP enzymes": {"tested_on": "most CYP enzymes", "test": "Drug-drug interactions: CYP inhibition", "assay_type": "in vitro ADME", "from_the_text": "In assays carried out in accordance with the “Guideline on the investigation of drug interactions”, CPMP/EWP/560/95/Rev. 1 Corr. 2, European Medicines Agency, Committee for Human Medicinal Products (CHMP) and “Guidance for Industry, Drug Interaction Studies—Study Design, Data Analysis, Implications for Dosing, and Labeling Recommendations”, U.S. Department of Health and Human Services."}, "RPMI-8226/GN1": {"tested_on": "RPMI-8226/GN1", "test": "Multiple myeloma cells in mono- and co-culture with osteoblasts, imaging based detection (RPMI-8226)", "assay_type": "cell-based", "description": "Compound 86 has been compared with the key compound of WO 2000/21926 A2 (Example 121) in an imaging based detection system.\nTwo different multiple myeloma (MM) cell lines (RPMI-8226 (DSMZ, ACC 402), NCI-H929 DSMZ, ACC 163) have been used and were cultured in mono- and co-culture with osteoblasts (OB) (Osteoblasts were obtained by culturing hMSCs with a differentiation inducing medium for two weeks) in accordance with the method of Karadag A. et al. Journal of Bone and Mineral Research Vol. 15, No. 10, 2000 page 1935-43."}, "DU145 (prostate)": {"tested_on": "DU145 (prostate)", "test": "In vitro proliferation screening (Sulforhodamin B) DU145", "assay_type": "cell-based", "conditions": "Homo sapiens, DU-145; DU145, 72 h; unit M", "from_the_text": "(§3) In order to evaluate the antitumor activity of the compounds of the present invention, in particular compound 86, in solid tumors, an in vitro proliferation screening in a panel of 10 different human cancer cell lines derived from solid tumors (see Table 5, below) as a model system.\n(§4) Six 10-fold dilutions of compound 86 have been prepared in DMSO, from 5×10^−9 M to 5×10^−4. Single data points have been tested for each concentration. The final concentration of DMSO was 0.1%. The duration of the treatment was 72 hours. The growth inhibition was measured by using Sulforhodamin B, a protein-staining assay in accordance with Vichai V et. al. Nat. Protoc. 2006; 1(3):1112-6. Activity of the agents was determined by evaluating the following parameters: IC50, GI50, IC10, GI10, TGI, LC50, IC90 and GI90 (if these values could be calculated)."}, "HCT116 (colon)": {"tested_on": "HCT116 (colon)", "test": "In vitro proliferation screening (Sulforhodamin B) HCT116", "assay_type": "cell-based, human", "conditions": "HCT116, 72 h", "from_the_text": "as §3, §4"}, "[1]": {"tested_on": "HT1080 (connective tissue)", "test": "In vitro proliferation screening (Sulforhodamin B) HT1080", "assay_type": "cell-based, human", "conditions": "HT1080, 72 h", "from_the_text": "as §3, §4"}, "MDAMB468 (breast)": {"tested_on": "MDAMB468 (breast)", "test": "In vitro proliferation screening (Sulforhodamin B) MDAMB468", "assay_type": "cell-based", "conditions": "Homo sapiens, MDA-MB-468; MDAMB468, 72 h; unit M", "from_the_text": "as §3, §4"}, "[2]": {"tested_on": "LP-1 multiple myeloma cells", "test": "Cell cycle analysis (propidium iodide FACS) LP1", "assay_type": "cell-based", "from_the_text": "(§5) In order to investigate the mode of action (MOA) related to the antitumor activity of the compounds of the present invention (in particular compound 86) in solid tumors and multiple myeloma, two experimental strategies were used to confirm the postulated MOA: 1) monitoring of apoptosis induction and 2) cell cycle analysis upon treatment with compound 86. Three cancer cell lines (LP-1, (multiple myeloma cells, DSMZ ACC 41), A375 (melanoma cells), and HeLa (cervix carcinoma cells)) as well as control cells (HS-5 bone marrow stroma cells, ATCC CRL-11882) were used to obtain mechanistic insight into the antitumor activity of compound 86.\n(§6) Measuring of DNA content in cells is a well-established method for monitoring cell proliferation, cell cycle, fragmentation of nuclei (apoptosis) and DNA ploidy. Proliferating cells progress through various phases of the cell cycle (G0, G1, S, G2, and M phase). At different stages of the cell cycle and life cycle, cell nuclei contain different amounts of DNA. The DNA content in cell nuclei was analyzed by propidium iodide (PI) staining and FACS analysis after 12 and 24 h of treatment with 100 nM of compound 86 in accordance with the method of Desai Brijal M. et. al. PLOS Vol. 8; Issue 3; p. 1-11, 2013."}, "A375 melanoma cells [3]": {"tested_on": "A375 melanoma cells", "test": "Cell cycle analysis (propidium iodide FACS) A375", "assay_type": "cell-based", "from_the_text": "as §5, §6"}, "[4]": {"tested_on": "LP-1 multiple myeloma cells", "test": "PARP cleavage Western blot LP1", "assay_type": "cell-based", "conditions": "LP1, 24 h, 100 nM, FIG. 1B legend 0.08 μM", "from_the_text": "as §5\n(§7) Annexin V staining and Poly(ADP-ribose)-Polymerase 1 (PARP) protein cleavage was analyzed to identify a pro-apoptotic effect of compound 86 on tumor cells in accordance with the method of Koopman G, et. al. Blood 1994; 1; 84(5):1415-20. Annexin V allows the identification of cell surface changes that occur early during the apoptotic process by in situ detection, which is ideal for the analysis with adherent cells. Cleavage of PARP-1 by caspases is considered to be a hallmark of apoptosis and was therefore applied to monitor apoptosis induction after 24 h of treatment with 100 nM of compound 86."}, "A375 melanoma cells [5]": {"tested_on": "A375 melanoma cells", "test": "PARP cleavage Western blot A375", "assay_type": "cell-based", "conditions": "A375, 24 h, 100 nM, FIG. 1B legend 0.08 μM", "from_the_text": "as §5, §7"}, "A375 melanoma cells [6]": {"tested_on": "A375 melanoma cells", "test": "Annexin V/PI staining A375", "assay_type": "cell-based", "conditions": "A375, 0.1 μM, 12 h and 24 h", "from_the_text": "as §5, §7"}}, "note": "Values joined by “and” are separate entries in the source; they are usually repeats but may differ in a detail not shown here. Equal values may be shown once. Read-outs that look alike come from different tables or passages of the source.", "data": [{"smiles": "CCN(CC)CC(=O)Nc1ccc(Cc2nc3c(c(N(C)C)nn3-c3c(Cl)cc(S(N)(=O)=O)cc3Cl)c(=O)[nH]2)cc1", "note": "[Compound 86, N-{4-[1-(2,6-Dichloro-4-sulfamoyl-phenyl)-3-dimethylamino-4-oxo-4,5-dihydro-1H-pyrazolo[3,4-d]pyrimidin-6-ylmethyl]-phenyl}-2-diethylamino-acetamide]", "values": [{"measurement": "kinase inhibitory selectivity: CDK7", "setting": "CDK7", "value": "active as inhibitors"}, {"measurement": "kinase inhibitory selectivity: CDK13", "setting": "CDK13", "value": "active as inhibitors"}, {"measurement": "kinase inhibitory selectivity: CDK16", "setting": "CDK16", "value": "active as inhibitors"}, {"measurement": "inhibitory activity of most CYP enzymes", "setting": "most CYP enzymes", "value": "only weak inhibitory activity"}, {"measurement": "EC50", "setting": "RPMI-8226/GN1; Homo sapiens, RPMI-8226, RPMI-8226/GN1, co-culture with osteoblasts, read-out: co-culture (+ OB) EC50", "value": 0.14, "unit": "µM"}, {"measurement": "EC50", "setting": "RPMI-8226/GN1; Homo sapiens, RPMI-8226, RPMI-8226/GN1, mono-culture, read-out: mono-culture EC50", "value": 0.14, "unit": "µM"}, {"measurement": "EC50", "setting": "RPMI-8226/GN1; RPMI-8226/GN1, co-culture with osteoblasts, read-out: co-culture (+ OB) EC50", "value": "0.22 µM and 0.18 µM"}, {"measurement": "EC50", "setting": "RPMI-8226/GN1; RPMI-8226/GN1, mono-culture, read-out: mono-culture EC50", "value": "0.19 µM and 0.12 µM"}, {"measurement": "GI50", "setting": "DU145 (prostate)", "value": 0.0324, "unit": "µM"}, {"measurement": "IC50", "setting": "DU145 (prostate)", "value": 0.0373, "unit": "µM"}, {"measurement": "GI50", "setting": "HCT116 (colon); unit M", "value": 0.00582, "unit": "µM"}, {"measurement": "GI50", "setting": "HCT116 (colon); Homo sapiens, HCT-116, 72 h, rounded value of the conclusions", "value": 0.0058, "unit": "µM"}, {"measurement": "GI50", "setting": "HCT116 (colon); Homo sapiens, HCT-116, 72 h, unit M", "value": 0.00582, "unit": "µM"}, {"measurement": "IC50", "setting": "HCT116 (colon); Homo sapiens, HCT-116, unit M", "value": 0.00605, "unit": "µM"}, {"measurement": "growth inhibitory response in words", "setting": "[1]", "value": "growth inhibition in the middle nanomolar range"}, {"measurement": "GI50", "setting": "[1]; Homo sapiens, HT-1080, unit M", "value": 0.0364, "unit": "µM"}, {"measurement": "IC50", "setting": "[1]; Homo sapiens, HT-1080, unit M", "value": 0.038, "unit": "µM"}, {"measurement": "GI50", "setting": "MDAMB468 (breast)", "value": 0.0389, "unit": "µM"}, {"measurement": "IC50", "setting": "MDAMB468 (breast)", "value": 0.043, "unit": "µM"}, {"measurement": "cell cycle profile (DNA content)", "setting": "[2]; LP1, 0.1 μM, 12 and 24 h (FIG. 1A)", "value": "cell cycle defects and a progressive enrichment of the sub G1 group"}, {"measurement": "cell cycle profile (DNA content)", "setting": "[2]; LP1, 100 nM, 12 h", "value": "strong enrichment of nuclei in the sub_G1 fraction"}, {"measurement": "cell cycle profile (DNA content)", "setting": "[2]; LP1, 100 nM, 24 h", "value": "almost all intact nuclei of LP1 cells disappeared"}, {"measurement": "cell cycle profile (DNA content)", "setting": "A375 melanoma cells [3]; A375, 0.1 μM, 12 and 24 h (FIG. 1A)", "value": "cell cycle defects and a progressive enrichment of the sub G1 group"}, {"measurement": "cell cycle profile (DNA content)", "setting": "A375 melanoma cells [3]; A375, 100 nM, 12 h", "value": "G2/M arrest"}, {"measurement": "cell cycle profile (DNA content)", "setting": "A375 melanoma cells [3]; A375, 100 nM, 24 h", "value": "started to enrich in the sub_G1 fraction"}, {"measurement": "PARP cleavage", "setting": "[4]", "value": "specific induction of PARP cleavage"}, {"measurement": "PARP cleavage", "setting": "[4]; listed as Otviciclib", "value": "induction of PARP cleavage"}, {"measurement": "PARP cleavage", "setting": "A375 melanoma cells [5]", "value": "specific induction of PARP cleavage"}, {"measurement": "PARP cleavage", "setting": "A375 melanoma cells [5]; listed as Otviciclib", "value": "induction of PARP cleavage"}, {"measurement": "induction of apoptosis (Annexin V/PI staining)", "setting": "A375 melanoma cells [6]", "value": "specific induction of apoptosis"}, {"measurement": "induction of apoptosis (Annexin V/PI staining)", "setting": "A375 melanoma cells [6]; listed as Otviciclib", "value": "reproducible induction of apoptosis"}]}]}
